pIC50: −log10 of the molar value. Where two headings read alike, the source gives them in different places.
Tests used:
[1] = biological target: T1, CCK receptor (brain) (Cavia porcellus, UniProt H0VZC5); assay: CCK receptor binding (brain) method; set-up: species or system Hartley guinea pig; conditions: guinea pig cerebral cortex, 25° C., 2 hours; read-out: ^125 I-CCK Brain IC50
T1 construct: The cerebral cortex is dissected and used as a receptor source; from tissue; host or cells: cerebral cortex of male Hartley guinea pig, membrane homogenate
T1 sequence (H0VZC5 1-426): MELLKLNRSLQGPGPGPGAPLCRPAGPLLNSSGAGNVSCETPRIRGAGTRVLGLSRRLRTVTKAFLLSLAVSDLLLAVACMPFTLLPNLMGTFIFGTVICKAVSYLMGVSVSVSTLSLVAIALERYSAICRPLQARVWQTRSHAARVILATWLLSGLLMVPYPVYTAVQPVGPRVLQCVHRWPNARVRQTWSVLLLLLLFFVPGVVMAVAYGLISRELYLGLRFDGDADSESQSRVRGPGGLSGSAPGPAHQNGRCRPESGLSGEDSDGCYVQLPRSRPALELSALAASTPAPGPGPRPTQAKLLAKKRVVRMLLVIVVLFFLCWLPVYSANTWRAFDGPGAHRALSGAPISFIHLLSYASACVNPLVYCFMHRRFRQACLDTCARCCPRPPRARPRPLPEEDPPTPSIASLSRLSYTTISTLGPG
Experimental: (§1) Screening of the novel compounds according to the present invention to determine biological activity and obtain an IC50 value for them, in order to identify significant CCK-antagonism, may be accomplished using an ^125 I-CCK receptor binding assay and in vitro isolated tissue preparations. These tests involve the following:
CCK receptor binding (brain) method
CCK-33 is radiolabeled and the binding is performed according to the description for the pancreas method, with modifications according to Saito et al., J. Neurochem., 37, 483-490, 1981.
Male Hartley guinea pigs (300-500 g) are sacrificed by decapitation, and the brains are removed and placed in ice-cold 50 mM Tris HCl (Trizma-7.4) [pH 7.4 at 25° C.]. The cerebral cortex is dissected and used as a receptor source and each gram of fresh guinea pig brain tissue is homogenized in 10 ml of Tris/Trizma buffer with a Brinkman polytron PT-10. The homogenates are centrifuged at 42,000 g for 15 minutes, then the resulting pellets are resuspended in 80 volumes of binding assay buffer (10 mM N-2-hydroxy-ethylpiperazine-N'-2-ethanesulfonic acid (HEPES), 5 mM MgCl2, 1 mM ethylene glycol-bis-(β-amino-ethyl-ether-N,N'-tetraacetic acid (EGTA), 0.4% BSA and 0.25 mg/ml bacitracin, pH 6.5).
The remainder of the binding assay method is as described for the pancreas method, except that the reaction mixtures are incubated at 25° C. for 2 hours before centrifugation.

[2] = biological target: T2, CCK receptor (pancreas) (Rattus norvegicus, UniProt P30551); assay: CCK receptor binding (pancreas) method; set-up: species or system Sprague-Dawley rat; conditions: rat pancreas membranes, 37° C., 30 minutes; read-out: I-CCK-8 Pancreas IC50
T2 construct: The whole pancreas of a male Sprague-Dawley rat; from tissue; host or cells: whole pancreas of male Sprague-Dawley rat, washed membrane homogenate
T2 sequence (P30551 1-444): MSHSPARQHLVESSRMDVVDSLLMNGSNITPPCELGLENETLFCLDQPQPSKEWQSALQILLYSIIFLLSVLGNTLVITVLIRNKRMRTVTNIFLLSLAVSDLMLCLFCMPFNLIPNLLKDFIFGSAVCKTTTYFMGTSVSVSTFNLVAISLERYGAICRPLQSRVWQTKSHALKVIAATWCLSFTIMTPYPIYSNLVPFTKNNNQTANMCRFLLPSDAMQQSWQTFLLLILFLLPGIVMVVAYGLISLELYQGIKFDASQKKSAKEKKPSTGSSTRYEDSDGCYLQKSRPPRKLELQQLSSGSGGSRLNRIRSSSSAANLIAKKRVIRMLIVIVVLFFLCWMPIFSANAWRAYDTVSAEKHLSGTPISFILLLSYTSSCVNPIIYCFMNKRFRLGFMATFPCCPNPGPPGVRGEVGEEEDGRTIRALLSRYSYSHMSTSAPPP
Experimental: as §1
CCK receptor binding (pancreas) method
[…] (J. Biol. Chem., 254, 9349-9351, 1979). Receptor binding is performed according to Innis and Snyder (Proc. Natl. Acad. Sci., 77, 6917-6921, 1980), with the minor modification of adding the additional protease inhibitors, phenyl-methane sulfonyl fluoride and o-phenanthroline, which have no effect on the ^125 I-CCK receptor binding assay.
The whole pancreas of a male Sprague-Dawley rat (200-350 g), which has been sacrificed by decapitation, is dissected free of fat tissue and homogenized in 20 volumes of ice-cold 50 mM Tris HCl (pH 7.7 at 25° C.) with a Brinkman Polytron PT-10. The homogenates are centrifuged at 48,000 g for 10 minutes, then the resulting pellets are resuspended in Tris Buffer, centrifuged as above, and resuspended in 200 volumes of binding assay buffer (50 mM Tris HCl, pH 7.7 at 25° C., 5 mM dithiothreitol, 0.1 mM bacitracin, 1.2 mM phenylmethane sulfonyl fluoride and 0.5 mM o-phenanthroline).
For the binding assay, 25 μl of buffer (for total binding), or unlabeled CCK-8 sulfate sufficient to give a final concentration of 1 μM of CCK-8 (for nonspecific binding), or the compounds of the formula of the compounds according to the instant invention ([…]), are added to 450 μl of the membrane suspensions in microfuge tubes. All assays are run in duplicate or triplicate, and the reaction mixtures are incubated at 37° C. for 30 minutes and centrifuged in a Beckman Microfuge (4 minutes) immediately after adding 1 ml of ice-cold incubation buffer. The supernatant is aspirated and discarded, and the pellets are counted with a Beckman Gamma 5000.

[3] = system: CCK receptor; conditions: structure-function studies; cited from earlier work
[4] = system: cholecystokinins in the gut; conditions: prior compound; cited from earlier work
[5] = biological target: T2, CCK receptor (pancreas); conditions: prior compound, U.S. Pat. No. 4,530,790; cited from earlier work

| Structure (SMILES) | pIC50 [1] | pIC50 [2] | CCK-receptor antagonist potency within derivatives of cyclic nucleotides [3] | selectivity in inhibiting the function of cholecystokinins [4] | pIC50 [5] |
| --- | --- | --- | --- | --- | --- |
| CC(C)C[C@H](NC(=O)OC(C)(C)C)C(=O)n1cc(C[C@@H]2NC(=O)c3ccccc3-n3c2nc2ccccc2c3=O)c2ccccc21 [Example 3, 7-[(1-[2(S)-((1,1-dimethylethoxy)-carbonyl)amino-4-methylpentanoyl]-1H-indol-3-yl)methyl]quinazolino(3,2-A)-1,4-benzodiazepin-5,13-(6H,7H)-dione sesquihydrate] | < 4.00 | < 4.00 |  |  |  |
| CC(C)C[C@H](NC(=O)OC(C)(C)C)C(=O)N1CC(C[C@@H]2NC(=O)c3ccccc3N3C(=O)c4ccccc4NC23)c2ccccc21 (stereo partly drawn) [Example 5, 7-[(1-[2(S)-((1,1-dimethylethoxy)carbonyl)amino-4-methylpentanoyl]-2,3-dihydro-1H-indol-3-yl)methyl]quinazolino(3,2-A)-1,4-benzodiazepin-5,13-(5H,7H)-dione hydrate] | < 4.00 | 4.72 |  |  |  |
| CC(C)C[C@@H](NC(=O)OC(C)(C)C)C(=O)N1CC(C[C@@H]2NC(=O)c3ccccc3-n3c2nc2ccccc2c3=O)c2ccccc21 (single isomer, unassigned; isomer 1) [Example 6] | < 4.00 | 4.78 |  |  |  |
| CCCC(=O)Nc1nc2c(ncn2[C@@H]2O[C@@H]3COP(=O)(O)O[C@H]3[C@H]2OC(=O)CCC)c(=O)[nH]1 [dibutyryl cyclic GMP] |  |  | most potent |  |  |
| O=C1N[C@@H](Cc2c[nH]c3ccccc23)C2Nc3ccccc3C(=O)N2c2ccccc21 (some centres unmarked) [Example 1, 7,7A-dihydro-7-(1H-indol-3-yl)methylquinazolino(3,2-B)-1,4-benzodiazepin-5,13-(6H,9H)-dione monohydrate] | < 4.00 | 4.92 |  |  |  |
| CC(C)C[C@H](NC(=O)OC(C)(C)C)C(=O)N1CC(C[C@@H]2NC(=O)c3ccccc3-n3c2nc2ccccc2c3=O)c2ccccc21 (stereo partly drawn) [Example 4, 7-[(1-[2(S)-((1,1-dimethylethoxy)carbonyl)amino-4-methylpentanoyl]-2,3-dihydro-1H-indol-3-yl)methyl]quinazolino(3,2-A)-1,4-benzodiazepin-5,13-(6H,7H)-dione hemihydrate] | < 4.00 | 5.47 |  |  |  |
| O=C1N[C@@H](CC2CNc3ccccc32)c2nc3ccccc3c(=O)n2-c2ccccc21 (some centres unmarked) [Example 2, 7-[(2,3-dihydro-1H-indol-3-yl)methyl]-quinazolino(3,2-A)-1,4-benzodiazepin-5,13-(6H,7H)-dione hemihydrate] | < 4.00 | 4.57 |  |  |  |
| CC(C)C[C@@H](NC(=O)OC(C)(C)C)C(=O)N1CC(C[C@@H]2NC(=O)c3ccccc3N3C(=O)c4ccccc4NC23)c2ccccc21 (single isomer, unassigned; isomer 1) [Example 8] | 4.82 | 4.31 |  |  |  |
| CC(C)C[C@H](NC(=O)OCc1ccccc1)C(=O)n1cc(C[C@@H]2NC(=O)c3ccccc3-n3c2nc2ccccc2c3=O)c2ccccc21 [Example 10, 7-[(1-[2(S)-phenylmethoxycarbonylamino-4-methylpentanoyl]-1H-indol-3-yl)methyl]quinazolino-(3,2-B)-1,4-benzodiazepin-5,13-(6H,7H)-dione] | < 4.00 | < 4.00 |  |  |  |
| CC(C)C[C@@H](NC(=O)OC(C)(C)C)C(=O)N1CC(C[C@@H]2NC(=O)c3ccccc3-n3c2nc2ccccc2c3=O)c2ccccc21 (single isomer, unassigned; isomer 2) [Example 7] | < 4.00 | < 4.00 |  |  |  |
| CC(C)C[C@@H](NC(=O)OC(C)(C)C)C(=O)N1CC(C[C@@H]2NC(=O)c3ccccc3N3C(=O)c4ccccc4NC23)c2ccccc21 (single isomer, unassigned; isomer 2) [Example 9] | 4.00 | 4.47 |  |  |  |
| O=C1N[C@@H](Cc2c[nH]c3ccccc23)c2nc3ccccc3c(=O)n2-c2ccccc21 [7β-[(1H-indol-3-yl)methyl]quinazolino(3,2-A) (1,4)benzodiazepin-5,13(6H,7H)dione] |  |  |  | selective in inhibiting the function of cholecystokinins in the gut | 4.59 |

— patent US4559339A, “Indol-3-yl-quinazolino-1,4-benzodiazepin-5,13-diones” (Merck & Co., Inc., priority 1985, dated 1985)
